Test results reported in PubChem BioAssay AID180 (DTP/NCI, 2004).
“And” between values parts separate entries of the source, which are not always exact repeats. Equal values may be shown once.

Tested on: BDF1 mice, Adenocarcinoma 755 s.c., tumor weight T/C
Assay: NCI In Vivo Anticancer Drug Screen. Data for tumor model Adenocarcinoma 755 (subcutaneous) in B6D2F1 (BDF1) mice
Settings: endpoint: mean tumor weight, higher = larger tumour
How it was run: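 In vivo antitumor screen on a transplantable tumor line. Result equals the measure in compound-treated animals divided by the same measure in vehicle controls.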

[1] = dose: 12.5 mg/kg/injection, schedule: Q01DX011 (ip), vehicle: saline
[2] = dose: 25.0 mg/kg/injection, schedule: Q01DX011 (ip), vehicle: saline
[3] = dose: 50.0 mg/kg/injection, schedule: Q01DX011 (ip), vehicle: saline
[4] = dose: 25.0 mg/kg/injection, schedule: Q01DX011 (ip), vehicle: carboxymethylcellulose (CMC)
[5] = dose: 50.0 mg/kg/injection, schedule: Q01DX011 (ip), vehicle: carboxymethylcellulose (CMC)
[6] = dose: 100.0 mg/kg/injection, schedule: Q01DX011 (ip), vehicle: carboxymethylcellulose (CMC)
[7] = dose: 12.5 mg/kg/injection, schedule: Q01DX011 (ip), vehicle: carboxymethylcellulose (CMC)

Compound: O=[N+]([O-])O.[Ga]
- T/C [1]: 20 % of control
- T/C [2]: 24 % of control
- T/C [3]: 7 % of control

Compound: S=c1[nH]c(=S)c2[nH]cnc2[nH]1
- T/C [4]: 84 % of control
- T/C [5]: 58 % of control
- T/C [6]: 31 % of control

Compound: O=C=NC(c1ccccc1)(c1ccccc1)c1ccccc1
- T/C (dose: 7.0 mg/kg/injection, schedule: Q01DX011 (ip), vehicle: carboxymethylcellulose (CMC)): 102 % of control
- T/C (dose: 14.0 mg/kg/injection, schedule: Q01DX011 (ip), vehicle: carboxymethylcellulose (CMC)): 103 % of control
- T/C (dose: 28.0 mg/kg/injection, schedule: Q01DX011 (ip), vehicle: carboxymethylcellulose (CMC)): 86 % of control and 87 % of control
- T/C (dose: 112.0 mg/kg/injection, schedule: Q01DX011 (ip), vehicle: carboxymethylcellulose (CMC)): 71 % of control

Compound: C=CC(CN1CC1)OC(C)=O (stereo not drawn)
- T/C (dose: 0.25 mg/kg/injection, schedule: Q01DX011 (sc), vehicle: saline): 97 % of control
- T/C (dose: 0.5 mg/kg/injection, schedule: Q01DX010 (oral), vehicle: saline): 28 % of control
- T/C (dose: 0.5 mg/kg/injection, schedule: Q01DX011 (ip), vehicle: methylcellulose (MC)): 62 % of control
- T/C (dose: 0.5 mg/kg/injection, schedule: Q01DX011 (sc), vehicle: saline): 94 % of control
- T/C (dose: 1.0 mg/kg/injection, schedule: Q01DX006 (iv), vehicle: saline): 63 % of control
- T/C (dose: 1.0 mg/kg/injection, schedule: Q01DX010 (oral), vehicle: saline): 21 % of control
- T/C (dose: 1.0 mg/kg/injection, schedule: Q01DX011 (ip), vehicle: methylcellulose (MC)): 49 % of control
- T/C (dose: 1.0 mg/kg/injection, schedule: Q01DX011 (sc), vehicle: saline): 83 % of control
- T/C (dose: 1.0 mg/kg/injection, schedule: Q02DX004 (im), vehicle: saline): 93 % of control
- T/C (dose: 1.24 mg/kg/injection, schedule: Q01DX011 (ip), vehicle: carboxymethylcellulose (CMC)): 202 % of control
- T/C (dose: 1.6 mg/kg/injection, schedule: Q01DX011 (ip), vehicle: carboxymethylcellulose (CMC)): 36 % of control
- T/C (dose: 1.69 mg/kg/injection, schedule: Q01DX011 (ip), vehicle: carboxymethylcellulose (CMC)): 81 % of control
- T/C (dose: 1.81 mg/kg/injection, schedule: Q01DX011 (ip), vehicle: carboxymethylcellulose (CMC)): 76 % of control
- T/C (dose: 2.0 mg/kg/injection, schedule: Q01DX006 (iv), vehicle: saline): 66 % of control
- T/C (dose: 2.0 mg/kg/injection, schedule: Q01DX010 (oral), vehicle: saline): 9 % of control
- T/C (dose: 2.0 mg/kg/injection, schedule: Q01DX011 (sc), vehicle: saline): 47 % of control
- T/C (dose: 2.0 mg/kg/injection, schedule: Q02DX004 (im), vehicle: saline): 68 % of control
- T/C (dose: 2.48 mg/kg/injection, schedule: Q01DX011 (ip), vehicle: carboxymethylcellulose (CMC)): 79 % of control
- T/C (dose: 2.7 mg/kg/injection, schedule: Q01DX011 (ip), vehicle: carboxymethylcellulose (CMC)): 33 % of control
- T/C (dose: 3.2 mg/kg/injection, schedule: Q01DX011 (ip), vehicle: carboxymethylcellulose (CMC)): 77 % of control
- T/C (dose: 3.25 mg/kg/injection, schedule: Q01DX011 (oral), vehicle: saline): 50 % of control
- T/C (dose: 3.63 mg/kg/injection, schedule: Q01DX011 (ip), vehicle: carboxymethylcellulose (CMC)): 51 % of control
- T/C (dose: 3.96 mg/kg/injection, schedule: Q01DX011 (ip), vehicle: carboxymethylcellulose (CMC)): 29 % of control and 45 % of control
- T/C (dose: 4.0 mg/kg/injection, schedule: Q01DX006 (iv), vehicle: saline): 38 % of control
- T/C (dose: 4.0 mg/kg/injection, schedule: Q01DX010 (oral), vehicle: saline): 7 % of control
- T/C (dose: 4.0 mg/kg/injection, schedule: Q01DX011 (sc), vehicle: saline): 19 % of control and 40 % of control
- T/C (dose: 4.0 mg/kg/injection, schedule: Q02DX004 (im), vehicle: saline): 57 % of control
- T/C (dose: 6.0 mg/kg/injection, schedule: Q01DX011 (ip), vehicle: carboxymethylcellulose (CMC)): 26 % of control
- T/C (dose: 6.4 mg/kg/injection, schedule: Q01DX011 (ip), vehicle: carboxymethylcellulose (CMC)): 26 % of control
- T/C (dose: 6.6 mg/kg/injection, schedule: Q01DX011 (ip), vehicle: carboxymethylcellulose (CMC)): 7 % of control and 19 % of control
- T/C (dose: 6.75 mg/kg/injection, schedule: Q01DX011 (ip), vehicle: carboxymethylcellulose (CMC)): 21 % of control
- T/C (dose: 7.25 mg/kg/injection, schedule: Q01DX011 (ip), vehicle: carboxymethylcellulose (CMC)): 10 % of control
- T/C (dose: 7.5 mg/kg/injection, schedule: Q01DX011 (ip), vehicle: saline): 2 % of control and 8 % of control
- T/C (dose: 7.5 mg/kg/injection, schedule: Q01DX011 (oral), vehicle: saline): 19 % of control
- T/C (dose: 8.0 mg/kg/injection, schedule: Q01DX006 (iv), vehicle: saline): 16 % of control
- T/C (dose: 8.0 mg/kg/injection, schedule: Q01DX011 (ip), vehicle: carboxymethylcellulose (CMC)): 14 % of control
- T/C (dose: 8.0 mg/kg/injection, schedule: Q01DX011 (sc), vehicle: saline): 9 % of control
- T/C (dose: 8.0 mg/kg/injection, schedule: Q02DX004 (im), vehicle: saline): 27 % of control
- T/C (dose: 9.9 mg/kg/injection, schedule: Q01DX011 (ip), vehicle: carboxymethylcellulose (CMC)): 8 % of control and 11 % of control
- T/C (dose: 12.0 mg/kg/injection, schedule: Q01DX011 (ip), vehicle: carboxymethylcellulose (CMC)): 3 % of control
- T/C (dose: 15.0 mg/kg/injection, schedule: Q01DX011 (ip), vehicle: saline): 1 % of control
- T/C (dose: 62.5 micrograms/kg/injection, schedule: Q01DX011 (oral), vehicle: saline): 51 % of control
- T/C (dose: 125.0 micrograms/kg/injection, schedule: Q01DX011 (oral), vehicle: saline): 37 % of control
- T/C (dose: 250.0 micrograms/kg/injection, schedule: Q01DX011 (oral), vehicle: saline): 72 % of control
- T/C (dose: 500.0 micrograms/kg/injection, schedule: Q01DX011 (oral), vehicle: saline): 86 % of control

Compound: COCCCNS(=O)(=O)c1ncnc2nc[nH]c12
- T/C (dose: 1.0 mg/kg/injection, schedule: Q01DX011 (ip), vehicle: carboxymethylcellulose (CMC)): 79 % of control
- T/C (dose: 1.0 mg/kg/injection, schedule: Q01DX011 (ip), vehicle: saline): 74 % of control
- T/C (dose: 2.5 mg/kg/injection, schedule: Q01DX011 (ip), vehicle: saline): 96 % of control
- T/C (dose: 3.0 mg/kg/injection, schedule: Q01DX011 (ip), vehicle: carboxymethylcellulose (CMC)): 63 % of control and 81 % of control
- T/C (dose: 3.0 mg/kg/injection, schedule: Q01DX011 (ip), vehicle: saline): 163 % of control
- T/C (dose: 5.0 mg/kg/injection, schedule: Q01DX011 (ip), vehicle: carboxymethylcellulose (CMC)): 86 % of control
- T/C (dose: 6.0 mg/kg/injection, schedule: Q01DX011 (ip), vehicle: other): 105 % of control
- T/C (dose: 10.0 mg/kg/injection, schedule: Q01DX011 (ip), vehicle: carboxymethylcellulose (CMC)): 80 % of control
- T/C (dose: 12.0 mg/kg/injection, schedule: Q01DX011 (ip), vehicle: other): 43 % of control
- T/C [7]: 8 % of control (2×) and 30 % of control
- T/C [1]: 24 % of control
- T/C (dose: 25.0 mg/kg/injection, schedule: Q01DX011 (ip), vehicle: other): 37 % of control
- T/C [2]: 5 % of control and 9 % of control
- T/C [5]: 3 % of control and 4 % of control
- T/C [3]: 5 % of control
- T/C [6]: 3 % of control
- T/C (dose: 100.0 mg/kg/injection, schedule: Q01DX011 (ip), vehicle: other): 7 % of control
- T/C (dose: 200.0 mg/kg/injection, schedule: Q01DX011 (ip), vehicle: saline): 1 % of control

Compound: CC1(O)CC([CH2][Hg][I])OC([CH2][Hg][I])C1 (stereo not drawn)
- T/C [4]: 96 % of control
- T/C [5]: 67 % of control

Compound: CCC(C)Cn1cnc2c(Sc3c([N+](=O)[O-])ncn3C)nc(N)nc21 (stereo not drawn)
- T/C (dose: 11.0 mg/kg/injection, schedule: Q01DX011 (ip), vehicle: methylcellulose (MC)): 58 % of control
- T/C (dose: 33.0 mg/kg/injection, schedule: Q01DX011 (ip), vehicle: methylcellulose (MC)): 10 % of control
- T/C (dose: 100.0 mg/kg/injection, schedule: Q01DX011 (ip), vehicle: methylcellulose (MC)): 1 % of control

Compound: O=S(=O)(NCc1ccccc1)c1ncnc2nc[nH]c12
- T/C [7]: 73 % of control
- T/C [4]: 3 % of control
- T/C [5]: 1 % of control

Compound: CCC(c1ccc(O)cc1)C(CC)c1ccc(OC)cc1 (stereo not drawn)
- T/C (dose: 5.0 mg/kg/injection, schedule: Q01DX011 (sc), vehicle: steriod suspending solution): 57 % of control
- T/C (dose: 10.0 mg/kg/injection, schedule: Q01DX011 (sc), vehicle: steriod suspending solution): 56 % of control
- T/C (dose: 20.0 mg/kg/injection, schedule: Q01DX011 (sc), vehicle: steriod suspending solution): 33 % of control
- T/C (dose: 31.0 mg/kg/injection, schedule: Q01DX011 (ip), vehicle: olive oil, sesame oil, peanut oil): 33 % of control
- T/C (dose: 62.5 mg/kg/injection, schedule: Q01DX011 (ip), vehicle: olive oil, sesame oil, peanut oil): 27 % of control
- T/C (dose: 125.0 mg/kg/injection, schedule: Q01DX011 (ip), vehicle: olive oil, sesame oil, peanut oil): 45 % of control
- T/C (dose: 250.0 mg/kg/injection, schedule: Q01DX011 (ip), vehicle: olive oil, sesame oil, peanut oil): 33 % of control
